From ChEMBL document CHEMBL1201862, “PubChem BioAssay data set” (2004)
Activity calls are given as the source filed them.

Columns and labels:
[1] = molecular target: Voltage-gated inwardly rectifying potassium channel KCNH2 (Homo sapiens, UniProt Q12809); settings: Potency;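 further: confirmatory quantitative high-throughput screen measuring inhibition of hERG channel activity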
[2] = molecular target: T1, Short transient receptor potential channel 4 (Mus musculus, UniProt Q9QUQ5); assay: mouse TRPC4 channel activators, dose response, cell-based, HEK293 TRPC4/mu-opioid, Fluo-4 calcium (AID 434937); format: functional
T1 sequence (Q9QUQ5 whole entry): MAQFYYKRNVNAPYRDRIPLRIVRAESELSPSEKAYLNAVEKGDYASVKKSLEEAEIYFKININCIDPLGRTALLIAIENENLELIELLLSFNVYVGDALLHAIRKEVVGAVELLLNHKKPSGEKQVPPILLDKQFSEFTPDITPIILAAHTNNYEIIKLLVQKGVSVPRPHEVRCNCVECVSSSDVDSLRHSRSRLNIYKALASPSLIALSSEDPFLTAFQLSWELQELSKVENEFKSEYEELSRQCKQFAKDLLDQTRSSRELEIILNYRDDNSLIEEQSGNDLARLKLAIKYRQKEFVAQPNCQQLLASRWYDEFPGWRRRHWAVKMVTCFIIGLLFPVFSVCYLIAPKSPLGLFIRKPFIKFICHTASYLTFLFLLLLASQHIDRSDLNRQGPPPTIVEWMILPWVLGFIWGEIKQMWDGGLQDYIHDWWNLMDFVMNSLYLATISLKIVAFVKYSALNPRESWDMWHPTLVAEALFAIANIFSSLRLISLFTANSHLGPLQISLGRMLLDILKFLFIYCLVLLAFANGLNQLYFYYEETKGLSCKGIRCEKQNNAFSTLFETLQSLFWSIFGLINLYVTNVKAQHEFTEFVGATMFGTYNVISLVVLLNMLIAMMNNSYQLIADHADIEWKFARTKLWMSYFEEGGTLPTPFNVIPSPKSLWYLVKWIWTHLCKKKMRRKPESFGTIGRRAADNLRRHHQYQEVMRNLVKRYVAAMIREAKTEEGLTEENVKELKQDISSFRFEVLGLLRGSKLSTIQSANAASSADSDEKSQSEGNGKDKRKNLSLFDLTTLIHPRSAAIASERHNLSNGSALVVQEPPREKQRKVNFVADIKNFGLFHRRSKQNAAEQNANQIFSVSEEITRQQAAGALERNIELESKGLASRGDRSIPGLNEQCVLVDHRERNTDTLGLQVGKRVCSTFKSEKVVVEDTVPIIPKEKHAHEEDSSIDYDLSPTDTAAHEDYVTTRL

[3] = molecular target: Delta-type opioid receptor (Homo sapiens, UniProt P41143); assay: Counterscreen for agonists of heterodimerization of the mu 1 (OPRM1) and delta 1 (OPRD1) opioid receptors: Luminescence-based cell-based high throughput dose response assay to identify agonists of OPRD1 homodimerization. [Related pubchem assays (depositor defined):AID504326, AID504355, AID504692, AID504904, AID504905]; format: functional
[4] = molecular target: Mu-type opioid receptor (Homo sapiens, UniProt P35372); assay: Counterscreen for agonists of heterodimerization of the mu 1 (OPRM1) and delta 1 (OPRD1) opioid receptors: Luminescence-based cell-based high throughput dose response assay to identify agonists of OPRM1 homodimerization.; format: functional;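 further: U2OS cells expressing OPRM1 and beta-arrestin as split beta-galactosidase partners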
[5] = molecular target: 5-hydroxytryptamine receptor 5A (Homo sapiens, UniProt P47898); assay: Counterscreen for agonists of OPRM1-OPRD1 heterodimerization: luminescence-based cell-based high throughput dose response assay to identify agonists of 5-hydroxytryptamine (serotonin) 5A receptor (HTR5A). [Related pubchem assays (depositor defined):AID504326, AID504355, AID504692, AID504904, AID504905]; format: functional
[6] = molecular target: Cysteine protease ATG4B (Homo sapiens, UniProt Q9Y4P1); format: functional;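 further: Fluorescence-based dose-response confirmation assay measuring inhibition of ATG4B activity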
[7] = molecular target: Phospholipase A2 (Homo sapiens, UniProt P04054); format: functional;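 further: confirmatory dose-response counterscreen on phospholipase A2, testing hits that came from an ultra-high-throughput screen for ATG4B inhibitors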
[8] = NIH-3T3 fibroblast cytotoxicity, dose response, cytotoxicity control, cell-based, fluorescence, Alamar Blue, secondary assay (AID 2327); format: functional;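 further: NIH-3T3 mouse fibroblasts cultured with fluconazole at 8 µg/mL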
[9] = molecular target: T2, Runt-related transcription factor 1/Core-binding factor subunit beta (Homo sapiens, UniProt Q01196+Q13951); assay: inhibitors of RUNX1 Runt–CBFb-SMMHC binding, primary screen, biochemical, FRET, Cerulean-Runt, Venus-CBFb-SMMHC, uHTS (AID 1434); format: protein assay;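 further: partner is the CBFb-SMMHC leukemia fusion protein rather than wild-type CBFb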
[10] = molecular target: Transitional endoplasmic reticulum ATPase (Homo sapiens, UniProt P55072, C522A); assay: C522A mutant p97 ATPase inhibitors, dose response, counter-screen for p97 inhibitor project, biochemical, luminescence (AID 1544)
[11] = C. albicans growth with fluconazole, confirmation, fluorescence, retest (AID 2467); format: functional, cell-based
[12] = molecular target: Large T antigen (Simian virus 40, UniProt P03070); format: functional, Betapolyomavirus macacae;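 further: Confirmatory-stage PubChem screen for compounds that inhibit SV40 T antigen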
[13] = molecular target: NS3 (Hepatitis C virus, UniProt A3EZJ3); assay: PubChem AID 2173; set-up: species or system Hepacivirus hominis
[14] = molecular target: T2, Runt-related transcription factor 1/Core-binding factor subunit beta; assay: inhibitors of RUNX1 Runt–CBFb-SMMHC binding, biochemical, TR-FRET (AID 1438); format: protein assay
[15] = molecular target: T3, Mannose-6-phosphate isomerase (Homo sapiens, UniProt P34949); assay: inhibitors of human PMI, primary screen, biochemical, fluorescence intensity, coupled assay (AID 1209)
T3 sequence (P34949 whole entry): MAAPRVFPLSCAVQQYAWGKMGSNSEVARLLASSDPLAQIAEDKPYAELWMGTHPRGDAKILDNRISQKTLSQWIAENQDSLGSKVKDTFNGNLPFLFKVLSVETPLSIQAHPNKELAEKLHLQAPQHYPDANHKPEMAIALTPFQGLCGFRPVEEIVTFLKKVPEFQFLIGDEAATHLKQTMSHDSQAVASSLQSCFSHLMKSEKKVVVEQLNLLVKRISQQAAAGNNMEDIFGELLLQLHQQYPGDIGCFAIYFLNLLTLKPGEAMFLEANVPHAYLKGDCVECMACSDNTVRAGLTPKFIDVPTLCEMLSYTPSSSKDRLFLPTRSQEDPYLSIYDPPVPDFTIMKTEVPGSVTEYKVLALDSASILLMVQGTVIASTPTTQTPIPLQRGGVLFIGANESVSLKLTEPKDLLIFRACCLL

[16] = molecular target: T4, Induced myeloid leukemia cell differentiation protein Mcl-1 (Homo sapiens, UniProt Q07820); assay: MCL1-BIM BH3 interaction inhibitors, dose response, biochemical, fluorescence polarization, BIM-BH3 peptide, 1536-well (AID 2217)
[17] = molecular target: Bcl-2-like protein 1 (Homo sapiens, UniProt Q07817); assay: BCL-XL inhibitors, dose response, selectivity assay for MCL1 inhibitor project, biochemical, fluorescence polarization, 1536-well (AID 2218)
[18] = molecular target: Transitional endoplasmic reticulum ATPase (Homo sapiens, UniProt P55072); assay: p97 ATPase inhibitors, dose response, biochemical (AID 1534)
[19] = molecular target: T4, Induced myeloid leukemia cell differentiation protein Mcl-1; format: functional
[20] = molecular target: Exodeoxyribonuclease V (Escherichia coli (strain K12), UniProt P04993+P07648+P08394); assay: E. coli RecBCD inhibitors, dose response, counter-screen for AddAB inhibitor project, absorbance, V66 E. coli, mutant T4 phage (AID 492957); format: functional, cell-based, Escherichia coli str. K-12 substr. MG1655
[21] = Counterscreen for AddAB inhibitors: absorbance-based bacterial cell-based high throughput dose response assay for inhibitors of bacterial viability. [Related pubchem assays (depositor defined):AID435030, AID449728, AID449731, AID488942, AID488955, AID488956]; format: functional
[22] = Late-stage probe development counterscreen for inhibitors of the Hepatitis C Virus non-structural protein 3 helicase (NS3): luminescence-based cell-based dose response assay to determine whether compounds that inhibit replication of HCV RNA replicon are cytotoxic. [Related pubchem assays (depositor defined):AID1800, AID1830, AID1845, AID1943, AID1945, AID2172, AID2173, AID2474, AID2476]; format: functional
[23] = molecular target: T5, Low molecular weight phosphotyrosine protein phosphatase (Homo sapiens, UniProt P24666); format: functional; settings: read-out: IC50_Mean;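 further: Dose-response confirmation assay measuring inhibition of LMPTP enzyme activity by fluorescence intensity read-out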
T5 sequence (P24666 whole entry): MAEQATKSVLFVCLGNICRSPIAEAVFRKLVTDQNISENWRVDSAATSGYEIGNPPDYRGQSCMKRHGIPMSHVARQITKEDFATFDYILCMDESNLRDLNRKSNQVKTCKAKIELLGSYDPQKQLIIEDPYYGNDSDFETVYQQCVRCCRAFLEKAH

[24] = test system: HeLa; assay: HeLa cell cytotoxicity, dose response, cytotoxicity control for MITF activator project, CellTiter-Glo luminescence, cherry-pick samples (AID 540259); format: functional, cell-based; settings: Homo sapiens
[25] = Luminescence Cell-Based Dose Response Follow up to Identify Inhibitors of Platelet Dense Granule Release. [Related pubchem assays (depositor defined):AID1663, AID1678, AID2398]; format: functional
[26] = molecular target: Hexokinase-1 (Homo sapiens, UniProt P19367); assay: HK1 enzyme inhibition by HKDC1 hits, SAR follow-up, selectivity assay for HKDC1 inhibitor project, biochemical, set 2, resazurin fluorescence coupled readout (AID 588356); format: functional
[27] = molecular target: Hexokinase HKDC1 (Homo sapiens, UniProt Q2TB90); assay: HKDC1 hexokinase inhibitors, SAR follow-up, biochemical, set 2 (AID 588355); format: functional
[28] = molecular target: T1, Short transient receptor potential channel 4; assay: SAR Analysis for the identification of selective inhibits of the transient receptor potential cation channel C4 (TRPC4): Automated Electrophysiology_2. [Related pubchem assays (depositor defined):AID2256]; format: functional
[29] = molecular target: Short transient receptor potential channel 6 (Mus musculus, UniProt Q61143); assay: TRPC6 inhibition potency of TRPC4 inhibitor analogs, dose response, selectivity assay for selective TRPC4 inhibitor project, HEK293 cells, membrane potential dye, IC50 (AID 492987); format: functional, cell-based
[30] = molecular target: Phospholipase D1 (Homo sapiens, UniProt Q13393); assay: PLD1 inhibitor potency in cells, dose response (AID 602151); format: functional;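 further: cellular PLD1 assay in Calu-1 cells stimulated with PMA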
[31] = molecular target: Phospholipase D2 (Homo sapiens, UniProt O14939); assay: PLD2 inhibitor potency in cells, dose response (AID 602147); format: functional;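 further: cellular assay in HEK293 cells overexpressing GFP-tagged PLD2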
[32] = inhibitors of firefly luciferase expression or activity, dose response, H4 neuroglioma cells, luminescence (AID 1990); format: functional, cell-based
[33] = Luminescence Cell-Based Dose Response HTS to Identify Inhibitors of 5'UTR Stem-Loop Driven Prion Protein mRNA Translation in H4 Neuroglioblastoma Cells. [Related pubchem assays: 1827 (Project Summary), 1813 (Primary HTS)]; format: functional
[34] = inhibitors of SNCA 5'UTR-driven reporter translation, confirmation, H4 neuroglioma cells, luminescence (AID 1988); format: functional, cell-based
[35] = test system: HEK293; assay: inhibitors of LMP1-driven NF-kB reporter, dose response, cell-based, HEK293, luciferase, cherry-pick (AID 588343); format: functional; settings: Homo sapiens
[36] = molecular target: Luciferin 4-monooxygenase (Photuris pensylvanica, UniProt Q27757); assay: firefly luciferase enzyme inhibitors, dose response, counter-screen for HSF-1 reporter inhibitor project, biochemical, Cell Titer Glo, luminescence, cherry-picks (AID 588847)
[37] = inhibitors of HIV Env-driven cell fusion, dose response, cherry-pick (AID 652057); format: functional, cell-based
[38] = off-target signal loss in HeLa-CEM21 co-culture – HeLa F-luc CTL cells, cherry-picked, counter-screen for HIV-1 Env fusion inhibitor project, dose response (AID 652040); format: functional, cell-based;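 further: potency for signal decrease marking cytotoxic or nonspecific inhibition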
[39] = inhibitors of clade B AD8 Env fusion, dose response, cell-based, cherry-pick (AID 652062); format: functional;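 further: luciferase signal from cell-cell fusion driven by HIV-1 clade B AD8 Env; potency is for inhibitors of fusion seen as a drop in luminescence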

T4 sequence (Q07820 whole entry): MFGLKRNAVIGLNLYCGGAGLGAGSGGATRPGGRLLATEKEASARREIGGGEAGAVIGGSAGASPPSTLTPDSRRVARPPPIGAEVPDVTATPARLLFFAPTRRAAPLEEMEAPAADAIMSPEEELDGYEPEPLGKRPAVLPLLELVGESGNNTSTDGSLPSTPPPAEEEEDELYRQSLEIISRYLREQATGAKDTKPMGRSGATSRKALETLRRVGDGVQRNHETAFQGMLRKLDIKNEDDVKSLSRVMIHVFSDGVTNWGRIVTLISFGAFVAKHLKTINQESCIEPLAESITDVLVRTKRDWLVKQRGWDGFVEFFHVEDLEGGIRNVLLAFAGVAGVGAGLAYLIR
T2 sequence (Q01196 whole entry, the tested form may be a part): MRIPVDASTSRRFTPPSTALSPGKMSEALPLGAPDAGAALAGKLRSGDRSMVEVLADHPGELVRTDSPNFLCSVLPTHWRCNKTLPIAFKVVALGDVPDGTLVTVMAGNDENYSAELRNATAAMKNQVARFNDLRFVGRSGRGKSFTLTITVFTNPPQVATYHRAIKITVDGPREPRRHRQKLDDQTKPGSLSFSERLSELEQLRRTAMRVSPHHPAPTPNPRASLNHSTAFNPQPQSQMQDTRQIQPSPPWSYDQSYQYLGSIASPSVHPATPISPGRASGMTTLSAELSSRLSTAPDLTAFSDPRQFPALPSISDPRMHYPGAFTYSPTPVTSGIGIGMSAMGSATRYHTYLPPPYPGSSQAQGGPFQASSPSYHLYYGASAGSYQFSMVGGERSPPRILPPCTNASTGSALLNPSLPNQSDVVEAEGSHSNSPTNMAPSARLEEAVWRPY
T2 sequence (Q13951 whole entry, the tested form may be a part): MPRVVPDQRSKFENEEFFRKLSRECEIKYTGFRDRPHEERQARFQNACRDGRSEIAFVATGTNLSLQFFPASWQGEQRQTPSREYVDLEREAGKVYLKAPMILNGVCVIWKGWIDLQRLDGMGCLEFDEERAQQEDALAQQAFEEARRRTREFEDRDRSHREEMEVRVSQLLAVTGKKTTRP
Hexokinase HKDC1, sequence (Q2TB90 whole entry): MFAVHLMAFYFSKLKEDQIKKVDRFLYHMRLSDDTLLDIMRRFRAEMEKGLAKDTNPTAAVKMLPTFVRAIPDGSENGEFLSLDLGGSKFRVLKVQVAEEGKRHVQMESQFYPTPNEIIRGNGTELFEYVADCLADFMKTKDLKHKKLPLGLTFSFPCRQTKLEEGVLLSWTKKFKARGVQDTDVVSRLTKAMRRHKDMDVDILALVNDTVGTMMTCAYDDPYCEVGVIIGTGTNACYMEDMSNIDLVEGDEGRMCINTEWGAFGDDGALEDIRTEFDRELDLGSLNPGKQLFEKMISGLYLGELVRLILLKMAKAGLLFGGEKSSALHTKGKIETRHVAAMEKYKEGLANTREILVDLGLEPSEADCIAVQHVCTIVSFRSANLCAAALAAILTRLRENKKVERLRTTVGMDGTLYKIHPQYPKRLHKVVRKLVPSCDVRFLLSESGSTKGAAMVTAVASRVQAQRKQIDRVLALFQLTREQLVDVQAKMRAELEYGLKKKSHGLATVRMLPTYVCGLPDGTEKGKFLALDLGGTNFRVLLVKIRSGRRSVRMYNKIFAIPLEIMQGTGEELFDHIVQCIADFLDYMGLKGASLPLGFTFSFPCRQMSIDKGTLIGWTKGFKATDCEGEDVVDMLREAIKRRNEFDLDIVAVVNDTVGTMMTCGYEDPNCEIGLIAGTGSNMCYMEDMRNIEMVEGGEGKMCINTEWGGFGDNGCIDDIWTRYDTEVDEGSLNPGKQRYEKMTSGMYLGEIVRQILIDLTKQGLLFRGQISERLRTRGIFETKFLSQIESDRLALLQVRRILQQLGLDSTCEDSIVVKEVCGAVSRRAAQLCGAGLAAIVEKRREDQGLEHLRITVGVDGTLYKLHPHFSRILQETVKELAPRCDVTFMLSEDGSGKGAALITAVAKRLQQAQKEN
Cysteine protease ATG4B, sequence (Q9Y4P1 whole entry): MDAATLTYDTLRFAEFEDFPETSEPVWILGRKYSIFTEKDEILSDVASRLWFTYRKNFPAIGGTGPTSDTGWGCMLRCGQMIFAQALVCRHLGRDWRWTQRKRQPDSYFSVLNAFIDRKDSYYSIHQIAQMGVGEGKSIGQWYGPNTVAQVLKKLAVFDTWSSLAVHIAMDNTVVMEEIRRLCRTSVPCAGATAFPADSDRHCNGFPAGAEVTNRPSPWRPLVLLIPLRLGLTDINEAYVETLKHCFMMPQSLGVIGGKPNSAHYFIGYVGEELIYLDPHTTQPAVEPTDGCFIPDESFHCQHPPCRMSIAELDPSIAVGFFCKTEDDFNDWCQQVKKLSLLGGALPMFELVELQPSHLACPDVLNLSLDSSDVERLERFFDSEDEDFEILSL
Short transient receptor potential channel 6, sequence (Q61143 whole entry): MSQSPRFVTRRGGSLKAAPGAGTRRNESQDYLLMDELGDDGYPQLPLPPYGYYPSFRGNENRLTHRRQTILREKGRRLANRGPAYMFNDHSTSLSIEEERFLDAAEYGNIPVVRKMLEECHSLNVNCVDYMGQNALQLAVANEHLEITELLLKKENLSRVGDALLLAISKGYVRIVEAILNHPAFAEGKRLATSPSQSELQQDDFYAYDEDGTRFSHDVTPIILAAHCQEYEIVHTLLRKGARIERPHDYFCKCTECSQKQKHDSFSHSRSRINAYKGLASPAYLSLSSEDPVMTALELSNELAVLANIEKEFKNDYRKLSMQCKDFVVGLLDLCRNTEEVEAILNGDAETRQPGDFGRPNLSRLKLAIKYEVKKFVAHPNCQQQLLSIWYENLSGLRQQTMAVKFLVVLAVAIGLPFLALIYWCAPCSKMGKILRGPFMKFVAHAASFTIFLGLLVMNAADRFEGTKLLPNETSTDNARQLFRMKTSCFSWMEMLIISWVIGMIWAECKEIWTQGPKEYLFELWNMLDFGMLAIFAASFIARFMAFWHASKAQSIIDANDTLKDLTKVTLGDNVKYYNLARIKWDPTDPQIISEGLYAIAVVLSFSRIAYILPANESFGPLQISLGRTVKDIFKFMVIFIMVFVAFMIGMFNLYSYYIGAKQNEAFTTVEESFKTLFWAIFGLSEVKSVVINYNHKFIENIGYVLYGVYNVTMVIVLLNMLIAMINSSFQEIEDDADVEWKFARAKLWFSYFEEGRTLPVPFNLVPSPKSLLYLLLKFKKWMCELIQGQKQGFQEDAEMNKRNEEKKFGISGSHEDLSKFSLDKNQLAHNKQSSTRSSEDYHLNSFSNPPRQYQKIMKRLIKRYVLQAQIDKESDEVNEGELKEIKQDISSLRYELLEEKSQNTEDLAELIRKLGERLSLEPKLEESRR
Phospholipase A2, sequence (P04054 whole entry): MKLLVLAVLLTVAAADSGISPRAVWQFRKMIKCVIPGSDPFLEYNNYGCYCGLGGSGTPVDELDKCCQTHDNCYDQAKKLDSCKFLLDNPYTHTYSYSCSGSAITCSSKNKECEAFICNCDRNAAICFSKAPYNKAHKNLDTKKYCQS
Mu-type opioid receptor, sequence (P35372 whole entry): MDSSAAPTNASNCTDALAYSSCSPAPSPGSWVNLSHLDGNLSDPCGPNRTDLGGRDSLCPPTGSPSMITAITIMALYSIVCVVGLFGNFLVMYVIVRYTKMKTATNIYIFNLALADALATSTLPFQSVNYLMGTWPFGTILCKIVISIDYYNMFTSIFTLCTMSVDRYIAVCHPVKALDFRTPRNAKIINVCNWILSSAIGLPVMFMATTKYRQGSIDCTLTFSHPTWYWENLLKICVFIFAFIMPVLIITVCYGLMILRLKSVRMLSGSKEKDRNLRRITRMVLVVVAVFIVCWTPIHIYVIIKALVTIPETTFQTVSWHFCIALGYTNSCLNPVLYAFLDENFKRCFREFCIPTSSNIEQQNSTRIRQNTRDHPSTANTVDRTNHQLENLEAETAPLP
Bcl-2-like protein 1, sequence (Q07817 whole entry): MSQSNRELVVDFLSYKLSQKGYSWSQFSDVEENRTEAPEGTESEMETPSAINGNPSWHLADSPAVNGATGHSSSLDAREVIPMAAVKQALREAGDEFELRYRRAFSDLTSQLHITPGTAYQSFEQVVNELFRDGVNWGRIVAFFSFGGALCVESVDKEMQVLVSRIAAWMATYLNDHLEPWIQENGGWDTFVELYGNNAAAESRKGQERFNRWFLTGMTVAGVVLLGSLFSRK
Transitional endoplasmic reticulum ATPase (Homo sapiens, UniProt P55072, C522A), sequence (P55072 2-806 C522A limits assumed): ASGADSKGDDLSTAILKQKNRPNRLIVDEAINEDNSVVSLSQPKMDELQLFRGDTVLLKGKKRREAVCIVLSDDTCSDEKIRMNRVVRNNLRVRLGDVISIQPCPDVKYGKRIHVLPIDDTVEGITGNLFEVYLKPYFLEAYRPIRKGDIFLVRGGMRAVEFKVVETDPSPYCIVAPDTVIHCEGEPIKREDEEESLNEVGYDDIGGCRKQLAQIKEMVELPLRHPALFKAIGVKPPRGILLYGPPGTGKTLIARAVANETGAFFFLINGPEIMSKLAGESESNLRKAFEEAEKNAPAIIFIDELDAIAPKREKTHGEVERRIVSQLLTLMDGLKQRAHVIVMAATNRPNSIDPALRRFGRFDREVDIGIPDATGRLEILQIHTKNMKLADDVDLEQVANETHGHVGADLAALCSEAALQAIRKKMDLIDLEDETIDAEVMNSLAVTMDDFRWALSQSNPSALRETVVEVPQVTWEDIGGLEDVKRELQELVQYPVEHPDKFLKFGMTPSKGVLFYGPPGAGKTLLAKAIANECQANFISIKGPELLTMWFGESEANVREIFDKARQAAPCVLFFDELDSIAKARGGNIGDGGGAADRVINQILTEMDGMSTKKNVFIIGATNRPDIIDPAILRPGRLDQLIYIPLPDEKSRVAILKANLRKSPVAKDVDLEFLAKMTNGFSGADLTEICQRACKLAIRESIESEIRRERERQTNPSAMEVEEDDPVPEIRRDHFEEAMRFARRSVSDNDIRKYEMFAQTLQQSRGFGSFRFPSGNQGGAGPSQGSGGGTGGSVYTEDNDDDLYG

CCCCN1CCC(n2c(=O)[nH]c3ccccc32)CC1
AC50 [1]: 11.2 µM (inconclusive)

CCOC(=O)C1(CCOc2ccccc2)CCN(Cc2ccc3c(c2)OCCO3)CC1
EC50 [2]: 1.33 µM (active) | EC50 [3]: > 92.5 µM (inactive) | EC50 [4]: > 92.5 µM (inactive) | EC50 [5]: > 92.5 µM (inactive)

O=C(O)CCn1cc(/C=C\C(=O)c2ccc(Cl)cc2)c(-c2cccc(Br)c2)n1
IC50 [6]: 15.7 µM (active) | IC50 [7]: 14.9 µM (active)

COc1cccc(-n2c(SCc3cc(=O)oc4cc(O)c(O)cc34)nc3ccccc3c2=O)c1
EC50 [8]: > 150 µM (inactive) | IC50 [9]: 2 µM (active) | IC50 [10]: > 50 µM (not active) | EC50 [11]: > 38 µM (not active) | IC50 [12]: > 100 µM (active) | IC50 [13]: 2.31 µM (active) | IC50 [14]: 19.3 µM (active) | IC50 [15]: 15.6 µM (active) | IC50 [16]: > 109 µM (not active) | IC50 [17]: > 109 µM (not active) | IC50 [18]: 21.1 µM (not active) | IC50 [19]: 2.72 µM (active) | IC50 [20]: > 119 µM (inactive) | IC50 [21]: > 119 µM (inactive) | CC50 [22]: > 100 µM (inactive) | IC50 [23]: 53.1 µM (inactive)

Cc1cccc(-c2cc(N)n(-c3ccccc3)n2)c1
AC50 [24]: > 350 µM (inactive)

Cn1c(N)c(C#N)c(-c2ccccc2)c(C#N)c1=O
EC50 [25]: 1.74 µM (active)

CCCCN1C(=O)C(NC(C)=O)c2cc(OC)ccc21 (centres undefined)
IC50 [26]: > 80 µM (inactive) | IC50 [27]: > 80 µM (inactive)

CCc1ccc2nc(N3CCCCC3)cc(C)c2c1
IC50 [28]: 3.73 µM (active) | IC50 [29]: 15 µM (active)

CC(C)[C@@H](CN1CCC2(CC1)C(=O)NCN2c1ccccc1)NC(=O)c1cc2cc(F)ccc2[nH]1
IC50 [30]: 0.026 µM (active) | IC50 [31]: 0.48 µM (active)

CCOc1ccc(OCc2cccc(C(=O)N/N=C/c3cccnc3)c2)cc1
EC50 [32]: 9.06 µM (active) | EC50 [33]: 12.8 µM (active) | EC50 [34]: 9.36 µM (active) | AC50 [35]: 1.29 µM (active) | AC50 [36]: 31.9 µM (active) | AC50 [37]: 2.3 µM (active) | AC50 [38]: 1.46 µM (active) | AC50 [39]: 3.31 µM (active)
